One substance from US8236761B2, “C-Met receptor regulation by angiotensin IV (AT4) receptor ligands” (Washington State University Research Foundation, priority 2006, dated 2012) can be followed below.

Non-standard residues stand in square brackets, D forms with d. No end group written: not given here. Nle = CCCC[C@H](N)C(=O)O

Experiment [1] relates to aortic ring angiogenic sprouts. The experiment in a line: Ex vivo mouse aortic ring angiogenesis assay. The conditions noted are these: 100 pM Norleual, four days, EGM-2. On the procedure:
FIG. 16 depicts inhibition of angiogenesis by Norleual (Compound 2, SEQ ID NO:43) in the mouse aortic ring assay. Rings were incubated in EGM-2 media (Cambrex) with (n=8) or without (n=6) 100 pM Norleual for four days. Digital photos of the rings were taken on day four. FIG. 16A: Quantification of aortic ring angiogenesis. Areas covered by angiogenic sprouts were quantified from day four ring photos, control (−) and Norelual treated (+) (p-value=0.012* and error bars indicate ±SEM). FIG. 16B: HUVECs were treated for 5 minutes with HGF and/or Norleual at indicated concentrations. Lysates were IP with anti-c-Met and IB with anti-c-Met or Gab1.
Aortic ring assay. 48-well plates were coated with Growth Factor Reduced Matrigel (BD Biosciences, San Jose, Calif., USA, thick gel method). Under microscopic dissection, the thoracic aorta of a 6 week-old C57 mouse was cut into 0.5 mm sections, washed in PBS, and placed in the Matrigel-coated wells. […] Photos were taken and angiogenic area was measured using Image J (Image Processing and Data Analysis in Java, available from NIH, Bethesda, Md.). […]
See Example 1 for Materials and Methods. Angiogenesis was evaluated with the ex vivo mouse aortic ring assay in the presence and absence of Norleual. […]

The subject of a further experiment is MDCK cells. The experiment in a line: HGF stimulated MDCK cell collagen I invasion (transwell chamber). The conditions noted are these: HGF 20 ng/ml, twelve hours. Format: cell-based, canine. The protocol: FIG. 9A: Modulation of HGF stimulated MDCK cell collagen I invasion in the Costar transwell chamber invasion assay. 50 μl of collagen I was added to the top chamber of the transwell chamber (BD Biosciences) and gelled by adjusting it to a physiological pH with a 1:1:1 mixture of 10× Modified Eagle's Medium, 1 M sodium bicarbonate, and 0.1 M sodium hydroxide for 30 minutes at 37° C. 50,000 MDCK cells in 1% FBS DMEM were seeded into the inside of the top chamber over the gelled collagen I solution and allowed to attach for two hours at 37° C. After the cells had attached to the collagen 1, the indicated concentrations of Norleual were added to the top chamber. […] The cells that had invaded the collagen and migrated to the underside of the membrane were counted in five random fields at 40× on a light microscope. The effect of treatment was determined using the one-way ANOVA with tukey's post-hoc analysis (Prism statistical analysis software). * indicates p<0.01 vs. HGF alone treatment. […] The cells that had invaded the collagen and migrated to the underside of the membrane were counted in five random fields at 40× on a light microscope. The effect of treatment was determined using the one-way ANOVA with tukey's post-hoc analysis (Prism statistical analysis software). * indicates p<0.05 vs. HGF treatment. […]

In a further experiment the target is c-Met (Homo sapiens, UniProt P08581). In words: Tyrosine kinase receptor protein array in HUVECs. Format: cell-based. More on the design: endogenous in cells; host or cells: HUVEC. The note with it: HUVECs treated for 5 minutes. On the procedure: Screening of a ligand for its ability to inhibit c-Met receptor phosphorylation was tested by tyrosine kinase receptor protein array. Briefly, human umbilical vein endothelial cells (HUVECs) grown to confluence were treated for 5 minutes with COMPOUND 2 (SEQ ID NO:43). Cells were then lysed and total protein collected.
c-Met, sequence (P08581 25-1390): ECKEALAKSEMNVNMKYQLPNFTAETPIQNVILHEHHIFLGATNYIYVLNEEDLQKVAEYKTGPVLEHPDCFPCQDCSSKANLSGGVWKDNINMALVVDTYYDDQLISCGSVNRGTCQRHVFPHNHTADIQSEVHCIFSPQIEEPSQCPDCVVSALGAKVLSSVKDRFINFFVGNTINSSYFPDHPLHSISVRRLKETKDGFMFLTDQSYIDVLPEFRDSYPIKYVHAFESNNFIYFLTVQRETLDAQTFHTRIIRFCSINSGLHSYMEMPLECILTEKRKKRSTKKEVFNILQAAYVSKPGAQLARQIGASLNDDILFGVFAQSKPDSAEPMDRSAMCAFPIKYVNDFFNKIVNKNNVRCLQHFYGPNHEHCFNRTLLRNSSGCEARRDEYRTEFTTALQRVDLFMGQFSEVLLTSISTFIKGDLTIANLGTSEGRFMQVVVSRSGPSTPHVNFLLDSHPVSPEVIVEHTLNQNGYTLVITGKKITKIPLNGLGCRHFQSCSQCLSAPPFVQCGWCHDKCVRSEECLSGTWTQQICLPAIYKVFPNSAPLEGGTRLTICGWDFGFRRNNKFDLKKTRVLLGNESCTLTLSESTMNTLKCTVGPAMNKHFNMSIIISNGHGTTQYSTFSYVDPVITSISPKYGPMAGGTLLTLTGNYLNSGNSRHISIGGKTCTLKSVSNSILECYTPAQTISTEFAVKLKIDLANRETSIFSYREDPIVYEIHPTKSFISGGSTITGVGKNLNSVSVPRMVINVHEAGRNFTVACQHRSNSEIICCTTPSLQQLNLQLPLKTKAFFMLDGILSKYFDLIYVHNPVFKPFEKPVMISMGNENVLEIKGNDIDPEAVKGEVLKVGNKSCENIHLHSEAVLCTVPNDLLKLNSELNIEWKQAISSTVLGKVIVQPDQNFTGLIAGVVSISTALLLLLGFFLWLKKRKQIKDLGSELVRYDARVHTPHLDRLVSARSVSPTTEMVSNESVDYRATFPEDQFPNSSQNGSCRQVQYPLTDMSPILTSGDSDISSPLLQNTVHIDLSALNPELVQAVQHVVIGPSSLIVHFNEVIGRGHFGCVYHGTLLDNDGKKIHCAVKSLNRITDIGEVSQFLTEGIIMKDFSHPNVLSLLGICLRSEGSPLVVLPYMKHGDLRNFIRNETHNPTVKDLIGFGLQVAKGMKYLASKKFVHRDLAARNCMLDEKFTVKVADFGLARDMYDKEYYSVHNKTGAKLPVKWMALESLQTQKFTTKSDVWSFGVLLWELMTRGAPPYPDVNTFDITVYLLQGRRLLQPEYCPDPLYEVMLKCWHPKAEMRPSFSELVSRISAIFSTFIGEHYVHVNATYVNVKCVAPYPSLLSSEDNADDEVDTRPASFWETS

Experiment [2] has as its system +SA murine mammary cancer cells. In words: Angiogenesis-related gene microarray of +SA murine mammary tumors. Format: in vivo, Balb/c mice. The conditions noted are these: 28 days intraperitoneal osmotic pump, 1 mg/kg/day. On the procedure:
Angiotensin-like factor Norleual (COMPOUND 2) was tested for its ability to modulate angiogenic genes in murine mammary tumors. Briefly, Balb/c mice grafted with +SA murine mammary cancer cells were treated with Compound 2. After 28 days of intraperitoneal administration via an osmotic pump (at a dose of 1 mg/kg/day), primary tumors were harvested and RNA was collected. Transcriptional activities of 96 angiogenesis-related genes were assessed using gene microarrays.

Take “Nle-Tyr-Leu-ψ-His-Pro-Phe ([Nle]YLHPF; also: reduced peptide bond psi(CH2NH2) between Leu and His) [Norleual]”: the “Angiogenic growth of aortic rings” value in experiment [1] was “significantly attenuated”. The “c-Met mediated collagen I invasion by MDCK cells” value in the experiment on MDCK cells is “inhibition”; in the experiment on MDCK cells (listed as Compound 2) it was “inhibited”. Further, the “c-Met phosphorylation in receptor protein array” value with c-Met is given as “inhibited”. For the same substance, in experiment [2], the “Change in gene expression versus control: Adamts 1, CD36, Connective tissue growth factor, PECAM 1, Cxcl 4, restin, Ccl 2, TNF-α, VEGF-α, VEGF-β” value is recorded as “at least five-fold”.
